Assay results from patent US20250129021A1, “SMALL MOLECULE PROTEIN SYNTHESIS MODULATORS” (Interdict Bio, Inc., priority 2023, published 2025).
pIC50: −log10 of the molar value.

Columns and labels:
Type in all cases: biochemical
Conditions in all cases: HeLa S3 lysate, sfGFP/mCherry ratio, 2 hrs at 30° C.
[1] = test system: MYC; assay: In vitro transcription-translation (IVTT) assay, MYC reporter
Outline: (§1)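 Reporter: mCherry, P2A, then 3×FLAG-target peptide-sfGFP fusion, IRES-initiated; HeLa S3 lysate IVTT; cpd dilutions 30 μM−0.1 μM half-log in 100% DMSO (dilution-plate conc); DNA added last; 2 h, 30° C; PBS quench.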

[2] = test system: ALK; assay: In vitro transcription-translation (IVTT) assay, ALK reporter
Outline: as §1

[3] = test system: KRAS G12D; assay: In vitro transcription-translation (IVTT) assay, KRAS G12D reporter
Text: All reporter constructs have been cloned into the pT7CFE1-CHis plasmid (ThermoFisher #88860) using Gibson assembly procedures (NEB #E2611L). The parental pT7CFE1-CHis plasmid contains an EMCV IRES at the 5′UTR for translation initiation, a multiple-cloning site (MCS) for gene insertion, an optional C-terminal His-epitope tag, and polyA sequence in the 3′UTR to regulate mRNA stability. All reporters are designed to be inserted at the MCS to include a red fluorescent protein (mCherry), P2A self-cleaving peptide which releases the preceding mCherry protein product, and a fusion open reading frame containing a 3×FLAG epitope, a peptide sequence of interest (TEST), and green fluorescent protein (sfGFP).
Construct Plasmid Preparation: All plasmids are isolated from MACH1 cells (ThermoFisher) grown overnight in ampicillin-containing luria broth, and purified using ZymoPure Express Plasmid Midiprep Kit (Zymo Research). Constructs are sequenced verified and diluted to a working concentration of 110 ng/μL.
HeLa S3 Lysate Preparation: HeLa S3 cell pellets are acquired from Ipracell/Ipratech (Belgium) and shipped as 4 mL frozen cell pellets on dry ice for storage at −80° C. until use. The procedure for lysate preparation is as follows. Prepare 1× Lysis Buffer, cold and stored on ice:
Each preparation takes 8 cell pellets (4 ml packed volume each, approximately 1.0×10^9 cells per pellet). Thaw cell pellets from −80° C. on ice for 90 mins. Lay pellets horizontally on top of the ice and rotate every 30 mins to ensure even thawing. Once thawed, add 4 mL of cold lysis buffer to each pellet, and using a serological pipet, gently pipet up and down to break up clumps. Incubate resuspended cells in ice for an additional 30 mins (plunged into ice). During 30 min incubation, rinse and RNase-zap (Ambion) glass dounces (use loose pestle “A”), gently dry and place on ice until needed. Prepare RNase-free Eppendorf tubes for spinning and for batch storage. Add batch labels to 1.5-1.7 mL RNase-free microcentrifuge tubes (labeling scheme below). Each batch will have an extra 1.5-1.7 mL RNase-free microcentrifuge tube for 40 μL of lysate, label the top of this tube (labeling scheme below). After 30 min incubation, transfer all 8 mL of cell pellet to dounce. Cell lysis is complete after douncing 100 times. Aliquot cell lysis into 1.5-1.7 mL temporary-microcentrifuge tubes. Place tubes in centrifuge with “fins” out, and spin at 1,200×g for 5 mins. After the first spin use a 1 mL pipet to resuspend each tube and repeat spin. This acts as an additional lysis step, is more vigorous and increases lysate yield. During second spin get liquid N2 and a fresh conical tube on ice. After spin is complete, transfer supernatant (lysate) from microcentrifuge tubes into the 50 mL conical tube and keep on ice. Repeat steps 10-14 for all other cell pellets until completed. Once all cell lysate has been transferred to the 50 mL conical tube pipet to mix so the solution is homogenous. Transfer 1 mL of lysate into batch-labeled microcentrifuge tubes and flash freeze in liquid nitrogen. Be sure to pipet up and down to mix throughout transfer step. Place all tubes in the […] for long-term storage.
In vitro transcription-translation assay setup: Each assay includes a master mix containing lysate and shared components, a 96-well plate containing compound titrations for testing, a 96-well DNA plate with reporter constructs to be tested, 96-well skirted PCR plates, and 96-well flat-bottom, black, fluorescent assay plates. […]

Row | SMILES | pIC50 [1] | pIC50 [2] | pIC50 [3]
1 | COCCN(CCNC(=O)O[C@@H]1[C@H](O)CN[C@H]1Cc1ccc(OC)cc1)CCc1ccccc1 [V187508, (2S,3S,4R)-4-hydroxy-2-[(4-methoxyphenyl)methyl]pyrrolidin-3-yl N-{2-[(2-methoxyethyl)(2-phenylethyl)amino]ethyl}carbamate] | < 4.52 | 4.70 to 5.00 | < 4.52
2 | COc1ccc(C[C@H]2NC[C@H](O)[C@H]2OC(=O)NCC[C@H]2CN(CC3CCCO3)CCN2Cc2ccccc2)cc1 (stereo partly drawn) [V187345, (2R,3S,4S)-4-hydroxy-2-[(4-methoxyphenyl)methyl]pyrrolidin-3-yl N-{2-[(2S)-1-benzyl-4-(oxolan-2-ylmethyl)piperazin-2-yl]ethyl}carbamate] | < 4.52 | < 4.52 | < 4.52
3 | COc1ccc(C[C@H]2NC[C@H](O)[C@H]2OC(=O)NCCN2C(=O)CNC2=O)cc1 [V187659, (2R,3S,4S)-4-hydroxy-2-[(4-methoxyphenyl)methyl]pyrrolidin-3-yl N-[2-(2,5-dioxoimidazolidin-1-yl)ethyl]carbamate; trifluoroacetic acid] | 4.52 to 4.70 | > 5.00 | < 4.52
4 | COc1ccc(C[C@H]2NC[C@H](O)[C@H]2OC(=O)Nc2cc(C)[nH]n2)cc1 [V187658, (2R,3S,4S)-4-hydroxy-2-[(4-methoxyphenyl)methyl]pyrrolidin-3-yl N-(5-methyl-1H-pyrazol-3-yl)carbamate; trifluoroacetic acid] | < 4.52 | < 4.52 | < 4.52
5 | COc1ccc(C[C@H]2NC[C@H](O)[C@H]2OC(=O)NCCN2CCC3(CNC3)C2)cc1 [V187644, (2R,3S,4S)-4-hydroxy-2-[(4-methoxyphenyl)methyl]pyrrolidin-3-yl N-(2-{2,6-diazaspiro[3.4]octan-6-yl}ethyl)carbamate; trifluoroacetic acid] | < 4.52 | 4.52 to 4.70 | < 4.52
6 | COc1ccc(C[C@H]2NC[C@H](O)[C@H]2OC(=O)NC[C@@H]2CCCO2)cc1 [V187520, (2R,3S,4S)-4-hydroxy-2-[(4-methoxyphenyl)methyl]pyrrolidin-3-yl N-[(2S)-oxolan-2-ylmethyl]carbamate; trifluoroacetic acid] | 4.52 to 4.70 | > 5.00 | < 4.52
7 | CCCCN(CCCC)CCNC(=O)O[C@@H]1[C@@H](O)CN[C@@H]1Cc1ccc(OC)cc1 [V187382, (2R,3S,4S)-4-hydroxy-2-[(4-methoxyphenyl)methyl]pyrrolidin-3-yl N-[2-(dibutylamino)ethyl]carbamate] | < 4.52 | < 4.52 | < 4.52
8 | COc1ccc(C[C@@H]2NC[C@@H](O)[C@H]2OC(=O)NCCN(CCC(N)=O)Cc2c[nH]cn2)cc1 [V187539, (2S,3S,4R)-4-hydroxy-2-[(4-methoxyphenyl)methyl]pyrrolidin-3-yl N-{2-[(2-carbamoylethyl)(1H-imidazol-4-ylmethyl)amino]ethyl}carbamate; trifluoroacetic acid] | > 5.00 | > 5.00 | 4.52 to 4.70
9 | COc1ccc(C[C@H]2NC[C@H](O)[C@H]2OC(=O)NCCNc2c(N)c(=O)c2=O)cc1 [V187518, (2R,3S,4S)-4-hydroxy-2-[(4-methoxyphenyl)methyl]pyrrolidin-3-yl N-{2-[(2-amino-3,4-dioxocyclobut-1-en-1-yl)amino]ethyl}carbamate; trifluoroacetic acid] | < 4.52 | 4.70 to 5.00 | < 4.52
10 | COc1ccc(C[C@H]2NC[C@H](O)[C@H]2OC(=O)NCCc2cnn(Cc3ccccc3)c2)cc1 [V187439, (2R,3S,4S)-4-hydroxy-2-(4-methoxybenzyl)pyrrolidin-3-yl (2-(1-benzyl-1H-pyrazol-4-yl)ethyl) carbamate] | > 5.00 | > 5.00 | 4.52 to 4.70
11 | COc1ccc(C[C@H]2NC[C@H](O)[C@H]2OC(=O)Nc2nsc(C)n2)cc1 [V187652, (2R,3S,4S)-4-hydroxy-2-[(4-methoxyphenyl)methyl]pyrrolidin-3-yl N-(5-methyl-1,2,4-thiadiazol-3-yl)carbamate; trifluoroacetic acid] | < 4.52 | < 4.52 | < 4.52
12 | CCCCN(CCCC)CCCNC(=O)O[C@@H]1[C@@H](O)CN[C@@H]1Cc1ccc(OC)cc1 [V187386, (2R,3S,4S)-4-hydroxy-2-[(4-methoxyphenyl)methyl]pyrrolidin-3-yl N-[3-(dibutylamino)propyl]carbamate] | < 4.52 | < 4.52 | < 4.52

The next lines start with the values.

Row | pIC50 [1] | pIC50 [2] | pIC50 [3] | SMILES
13 | < 4.52 | > 5.00 | 4.70 to 5.00 | COc1ccc(C[C@H]2NC[C@H](O)[C@H]2OC(=O)NCCN2C[C@@H](O)[C@H](O)C2)cc1 [V187577, (2R,3S,4S)-4-hydroxy-2-[(4-methoxyphenyl)methyl]pyrrolidin-3-yl N-{2-[(3R,4R)-3,4-dihydroxypyrrolidin-1-yl]ethyl}carbamate]
14 | 4.70 to 5.00 | > 5.00 | 4.70 to 5.00 | COc1ccc(C[C@H]2NC[C@H](O)[C@H]2OC(=O)NCCCCCN(C)C)cc1 [V187638, (2R,3S,4S)-4-hydroxy-2-[(4-methoxyphenyl)methyl]pyrrolidin-3-yl N-[5-(dimethylamino)pentyl]carbamate]
15 | < 4.52 | < 4.52 | < 4.52 | COc1ccc(C[C@H]2NC[C@H](O)[C@H]2OC(=O)N[C@@H]2CCNC2)cc1 [V187688, (2R,3S,4S)-4-hydroxy-2-(4-methoxybenzyl)pyrrolidin-3-yl ((R)-pyrrolidin-3-yl)carbamate]
16 | 4.70 to 5.00 | > 5.00 | 4.52 to 4.70 | COc1ccc(C[C@H]2NC[C@H](O)[C@H]2OC(=O)NCCN2CC(O)C(F)(F)C2)cc1 (stereo partly drawn) [V187620]
17 | > 5.00 | > 5.00 | 4.70 to 5.00 | COc1ccc(C[C@H]2NC[C@H](O)[C@H]2OC(=O)NCC2CCSCC2)cc1 [V187516, (2R,3S,4S)-4-hydroxy-2-[(4-methoxyphenyl)methyl]pyrrolidin-3-yl N-(thian-4-ylmethyl) carbamate]
18 | < 4.52 | < 4.52 | < 4.52 | COc1ccc(C[C@H]2NC[C@H](O)[C@H]2OC(=O)NCCN2CCC3(CC(O)C3)C2)cc1 (stereo partly drawn) [V187642, (2R,3S,4S)-4-hydroxy-2-[(4-methoxyphenyl)methyl]pyrrolidin-3-yl N-(2-{2-hydroxy-6-azaspiro[3.4]octan-6-yl}ethyl)carbamate]
19 | < 4.52 | 4.70 to 5.00 | < 4.52 | COc1ccc(CC2NCC(O)C2OC(=O)NC2CC(N)C2)cc1 [V187682, (2R,3S,4S)-4-hydroxy-2-[(4-methoxyphenyl)methyl]pyrrolidin-3-yl N-[(1r,3r)-3-aminocyclobutyl]carbamate]
20 | < 4.52 | 4.52 to 4.70 | < 4.52 | COc1ccc(C[C@H]2NC[C@H](O)[C@H]2OC(=O)NCCN2CC3(CNC3)C2)cc1 [V187623, (2R,3S,4S)-4-hydroxy-2-[(4-methoxyphenyl)methyl]pyrrolidin-3-yl N-(2-{2,6-diazaspiro [3.3]heptan-2-yl}ethyl)carbamate]
21 | 4.70 to 5.00 | > 5.00 | 4.52 to 4.70 | COc1ccc(C[C@H]2NC[C@H](O)[C@H]2OC(=O)NCCCOCC(C)C)cc1 [V187437, (2R,3S,4S)-4-hydroxy-2-[(4-methoxyphenyl)methyl]pyrrolidin-3-yl N-[3-(2-methylpropoxy)propyl]carbamate]
